Results taken from PMC9571063 (Molecules, 2022).
Several values for one entry are separate records, joined by “and”; a condition that tells them apart may be missing. Equal entries are not always repeated. Structures can show the parent of a compound that is named as a salt. Where two headings read alike, the source gives them in different places.

What was measured:
HsDYRK1A = molecular target: T1, HsDYRK1A (Homo sapiens, UniProt Q13627); assay: ADP-Glo kinase assay; type: biochemical; settings: for remaining activity at 1 µM / remaining activity at 10 µM: n=2, read-out: % of residual activity Hs_DYRK1A; for IC50: 10 µM ATP, duplicate
T1 construct: host or cells: Sf9 insect cells (baculovirus)

[1] = cytotoxic assay, nuclei count (Hoechst, HCS); type: cell-based; settings: human, Caco-2 cells (colorectal adenocarcinoma); 48 h treatment; read-out: Cytotoxic studies IC50 Caco2
Hs_PIM1 = molecular target: T2, Hs_PIM1 (Homo sapiens, UniProt P11309); assay: ADP-Glo kinase assay, primary screen; type: biochemical; settings: n=2, read-out: % of residual activity Hs_PIM1
T2 construct: host or cells: Sf9 insect cells (baculovirus)
T2 sequence (P11309 whole entry): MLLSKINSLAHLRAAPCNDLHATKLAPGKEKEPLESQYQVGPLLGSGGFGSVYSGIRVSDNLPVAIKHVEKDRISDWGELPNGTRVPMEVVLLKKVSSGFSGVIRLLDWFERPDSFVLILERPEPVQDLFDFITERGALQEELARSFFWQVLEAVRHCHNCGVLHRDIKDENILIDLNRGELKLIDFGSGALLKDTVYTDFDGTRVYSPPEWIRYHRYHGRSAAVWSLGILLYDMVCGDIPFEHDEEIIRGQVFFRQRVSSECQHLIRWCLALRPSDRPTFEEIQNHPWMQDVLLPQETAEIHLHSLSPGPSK

Rn_DYRK1A = molecular target: T3, Rn_DYRK1A (Rattus norvegicus, UniProt Q63470); assay: ADP-Glo kinase assay, primary screen; type: biochemical; settings: n=2, read-out: % of residual activity Rn_DYRK1A
T3 construct: host or cells: bacteria

Hs_GSK3β = molecular target: T4, Hs_GSK3β (Homo sapiens, UniProt P49841); assay: ADP-Glo kinase assay, primary screen; type: biochemical; settings: n=2, read-out: % of residual activity Hs_GSK3β
T4 construct: host or cells: Sf9 insect cells (baculovirus)
T4 sequence (P49841 whole entry): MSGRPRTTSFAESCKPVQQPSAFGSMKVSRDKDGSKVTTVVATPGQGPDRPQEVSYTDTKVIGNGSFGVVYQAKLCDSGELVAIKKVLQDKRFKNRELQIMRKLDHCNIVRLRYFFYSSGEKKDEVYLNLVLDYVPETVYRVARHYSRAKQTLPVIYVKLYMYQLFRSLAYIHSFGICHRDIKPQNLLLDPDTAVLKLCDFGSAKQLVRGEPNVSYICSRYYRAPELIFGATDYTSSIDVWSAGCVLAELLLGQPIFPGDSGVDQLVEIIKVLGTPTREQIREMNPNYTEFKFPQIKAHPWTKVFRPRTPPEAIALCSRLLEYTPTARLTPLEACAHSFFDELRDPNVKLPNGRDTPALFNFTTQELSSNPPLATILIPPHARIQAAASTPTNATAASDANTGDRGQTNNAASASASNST

HsCLK1 = molecular target: T5, HsCLK1 (Homo sapiens, UniProt P49759); assay: ADP-Glo kinase assay; type: biochemical
T5 construct: host or cells: Sf9 insect cells (baculovirus)
T5 sequence (P49759 whole entry): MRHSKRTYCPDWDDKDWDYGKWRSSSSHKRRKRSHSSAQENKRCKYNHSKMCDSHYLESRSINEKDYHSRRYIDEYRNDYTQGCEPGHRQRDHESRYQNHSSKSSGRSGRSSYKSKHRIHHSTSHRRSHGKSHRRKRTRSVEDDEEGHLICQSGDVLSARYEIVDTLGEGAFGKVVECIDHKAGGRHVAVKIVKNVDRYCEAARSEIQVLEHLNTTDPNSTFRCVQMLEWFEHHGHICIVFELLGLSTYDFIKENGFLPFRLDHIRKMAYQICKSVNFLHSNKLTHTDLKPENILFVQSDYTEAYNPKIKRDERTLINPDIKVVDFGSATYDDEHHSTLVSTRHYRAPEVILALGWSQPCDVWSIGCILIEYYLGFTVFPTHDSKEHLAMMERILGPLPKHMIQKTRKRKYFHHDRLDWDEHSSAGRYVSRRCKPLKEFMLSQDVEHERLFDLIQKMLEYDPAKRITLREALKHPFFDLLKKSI

[2] = cytotoxic assay, nuclei count (Hoechst, HCS); type: cell-based; settings: human, 48 h treatment
[3] = cytotoxic assay, nuclei count (Hoechst, HCS); type: cell-based, human; settings: human, human skin fibroblasts (non-cancerous reference cells); 48 h treatment; some cells add low/moderate/high amplitude; read-out: Cytotoxic studies IC50 Fibroblasts
[4] = cytotoxic assay, nuclei count (Hoechst, HCS); type: cell-based; settings: human, MDA-MB-231 cells (breast carcinoma); 48 h treatment; read-out: Cytotoxic studies IC50 MDA-MB-231
Hs_CDK9/CyclinT = molecular target: T6, Hs_CDK9/CyclinT (Homo sapiens, UniProt P50750); assay: ADP-Glo kinase assay, primary screen; type: biochemical; settings: n=2, read-out: % of residual activity Hs_CDK9/CyclinT
T6 construct: host or cells: Sf9 insect cells (baculovirus)
T6 sequence (P50750 whole entry): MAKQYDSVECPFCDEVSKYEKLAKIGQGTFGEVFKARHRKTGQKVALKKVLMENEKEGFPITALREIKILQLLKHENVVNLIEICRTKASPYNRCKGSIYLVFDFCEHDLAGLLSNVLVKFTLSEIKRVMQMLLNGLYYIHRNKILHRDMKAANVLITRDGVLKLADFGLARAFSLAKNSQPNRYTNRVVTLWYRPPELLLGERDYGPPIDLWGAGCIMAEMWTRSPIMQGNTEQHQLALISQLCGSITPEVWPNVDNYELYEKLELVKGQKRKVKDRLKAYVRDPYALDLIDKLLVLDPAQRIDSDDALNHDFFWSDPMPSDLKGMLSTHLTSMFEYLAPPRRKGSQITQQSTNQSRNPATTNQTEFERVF
T6 sequence (O60563 whole entry partner): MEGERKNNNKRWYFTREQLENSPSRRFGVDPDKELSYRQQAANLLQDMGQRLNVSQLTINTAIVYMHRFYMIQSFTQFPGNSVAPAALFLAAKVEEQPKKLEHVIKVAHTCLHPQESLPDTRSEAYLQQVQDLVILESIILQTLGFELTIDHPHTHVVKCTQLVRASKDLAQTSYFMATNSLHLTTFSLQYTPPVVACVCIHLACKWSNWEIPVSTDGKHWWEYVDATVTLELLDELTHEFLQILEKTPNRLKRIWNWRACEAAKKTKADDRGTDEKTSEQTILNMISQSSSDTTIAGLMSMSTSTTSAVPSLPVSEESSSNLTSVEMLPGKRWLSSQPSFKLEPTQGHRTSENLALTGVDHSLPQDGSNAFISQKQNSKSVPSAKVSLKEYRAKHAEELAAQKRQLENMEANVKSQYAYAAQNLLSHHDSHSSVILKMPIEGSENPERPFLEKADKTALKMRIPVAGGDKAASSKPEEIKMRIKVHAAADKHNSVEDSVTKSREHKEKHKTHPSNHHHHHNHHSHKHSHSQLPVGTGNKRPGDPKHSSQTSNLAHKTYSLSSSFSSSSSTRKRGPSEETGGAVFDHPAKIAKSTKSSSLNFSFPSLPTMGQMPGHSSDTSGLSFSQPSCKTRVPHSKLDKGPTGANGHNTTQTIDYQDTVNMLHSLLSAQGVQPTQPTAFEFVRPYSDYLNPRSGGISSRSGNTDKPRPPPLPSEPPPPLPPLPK

Hs_HASPIN = molecular target: T7, Hs_HASPIN (Homo sapiens, UniProt Q8TF76); assay: ADP-Glo kinase assay, primary screen; type: biochemical; settings: n=2, read-out: % of residual activity Hs_HASPIN
T7 construct: host or cells: bacteria
T7 sequence (Q8TF76 1-798): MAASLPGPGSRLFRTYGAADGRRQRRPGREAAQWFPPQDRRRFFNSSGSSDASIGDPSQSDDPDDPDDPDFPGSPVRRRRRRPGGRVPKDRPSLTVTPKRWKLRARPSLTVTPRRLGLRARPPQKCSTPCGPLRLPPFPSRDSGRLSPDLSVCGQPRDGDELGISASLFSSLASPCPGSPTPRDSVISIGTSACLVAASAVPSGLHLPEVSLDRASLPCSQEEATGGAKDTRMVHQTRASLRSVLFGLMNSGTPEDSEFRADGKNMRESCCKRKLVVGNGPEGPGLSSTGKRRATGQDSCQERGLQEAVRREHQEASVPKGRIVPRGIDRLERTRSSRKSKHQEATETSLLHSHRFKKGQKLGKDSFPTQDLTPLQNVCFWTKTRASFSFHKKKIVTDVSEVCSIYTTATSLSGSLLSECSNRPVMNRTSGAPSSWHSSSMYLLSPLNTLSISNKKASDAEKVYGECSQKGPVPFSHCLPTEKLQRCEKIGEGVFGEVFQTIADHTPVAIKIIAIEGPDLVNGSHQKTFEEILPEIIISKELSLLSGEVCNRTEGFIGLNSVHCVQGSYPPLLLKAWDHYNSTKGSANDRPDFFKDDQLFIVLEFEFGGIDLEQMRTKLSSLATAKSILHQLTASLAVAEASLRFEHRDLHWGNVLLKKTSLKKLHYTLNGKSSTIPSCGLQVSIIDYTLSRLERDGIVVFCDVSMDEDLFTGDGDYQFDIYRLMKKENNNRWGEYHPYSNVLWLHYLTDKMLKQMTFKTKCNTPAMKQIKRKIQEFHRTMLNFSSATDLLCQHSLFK

[5] = 10 µM ATP, duplicate, read-out: IC50 HsCLK1
[6] = HCT116 cells (colorectal adenocarcinoma), read-out: Cytotoxic studies IC50 HCT116
[7] = MDA-MB-468 cells (breast carcinoma), read-out: Cytotoxic studies IC50 MDA-MB-468

Compound	remaining activity at 1 µM (HsDYRK1A)	IC50 (HsDYRK1A)	remaining activity at 10 µM (HsDYRK1A)	IC50 at 48 h [1]	remaining activity at 1 µM (Hs_PIM1)	remaining activity at 10 µM (Hs_PIM1)	remaining activity at 1 µM (Rn_DYRK1A)	remaining activity at 10 µM (Rn_DYRK1A)	remaining activity at 1 µM (Hs_GSK3β)	remaining activity at 10 µM (Hs_GSK3β)	IC50 (HsCLK1; [5])	IC50 at 48 h [2, 6]	IC50 at 48 h [2, 7]	IC50 at 48 h [3]	IC50 at 48 h [4]	remaining activity at 1 µM (Hs_CDK9/CyclinT)	remaining activity at 10 µM (Hs_CDK9/CyclinT)	remaining activity at 1 µM (Hs_HASPIN)	remaining activity at 10 µM (Hs_HASPIN)	other results
Cc1ccc(-n2cc(COc3cccc4cnc(Nc5cc(Cl)cc(Cl)c5)nc34)nn2)c([N+](=O)[O-])c1 [7b, N-(3,5-dichlorophenyl)-8-((1-(4-methyl-2-nitrophenyl)-1H-1,2,3-triazol-4-yl)methoxy)quinazolin-2-amine]	≥ 100%	> 100 µM	80%	> 25 µM	87%	84%	87%	95%	85%	36%	0.085 µM	> 25 µM	> 25 µM	> 25 µM	> 25 µM	80%	34%	81%	46%	activity on the human DYRK1A (HsDYRK1A): completely inactive
COC(=O)c1ccc(-n2cc(COc3cccc4cnc(Nc5cccc(Cl)c5)nc34)nn2)c([N+](=O)[O-])c1 [12f, Methyl 4-(4-(((2-((3-chlorophenyl)amino)quinazolin-8-yl)oxy)methyl)-1H-1,2,3-triazol-1-yl)-3-nitrobenzoate]	≥ 100%	–	93%	> 25 µM	73%	66%	≥ 100%	83%	99%	69%	0.293 µM	> 25 µM	> 25 µM	> 25 µM	> 25 µM	73%	45%	73%	76%	–
N[C@H]1CC[C@@H](n2cc(COc3cccc4cnc(Nc5cc(Cl)cc(Cl)c5)nc34)nn2)CC1 [16b, 8-((1-((cis)-4-Aminocyclohexyl)-1H-1,2,3-triazol-4-yl)methoxy)-N-(3,5-dichlorophenyl)quinazolin-2-amine hydrochloride]	85%	1.9 µM	38%	3 µM	69%	15%	71%	20%	47%	8%	0.053 µM	2.4 µM	1 µM	2 µM	2 µM	61%	18%	76%	76%	–
O=[N+]([O-])c1cc(CO)ccc1-n1cc(COc2cccc3cnc(Nc4cccc(Cl)c4)nc23)nn1 [12e, 4-(4-(((2-((3-Chlorophenyl)amino)quinazolin-8-yl)oxy)methyl)-1H-1,2,3-triazol-1-yl)-3-nitrobenzyl alcohol]	84%	2.3 µM and 2.33 µM	31%	7 µM	96%	69%	80%	34%	99%	35%	0.146 µM	3 µM	4 µM	6 µM	6 µM	74%	21%	92%	88%	IC50 (HsCLK1; read-out: IC50 human CLK1): 0.15 to 0.2 µM
O=[N+]([O-])c1cc(Br)ccc1-n1cc(COc2cccc3cnc(Nc4cccc(Cl)c4)nc23)nn1 [12d, N-(3-Chlorophenyl)-8-((1-(4-bromo-2-nitrophenyl)-1H-1,2,3-triazol-4-yl)methoxy)quinazolin-2-amine]	≥ 100%	–	77%	> 25 µM	85%	70%	≥ 100%	76%	≥ 100%	75%	0.2 to 0.3 µM and 0.378 µM	> 25 µM	> 25 µM	13 µM	> 25 µM	85%	43%	91%	95%	–
O=C(O)c1ccc(-n2cc(COc3cccc4cnc(Nc5cccc(Cl)c5)nc34)nn2)c([N+](=O)[O-])c1 [12g, 4-(4-(((2-((3-Chlorophenyl)amino)quinazolin-8-yl)oxy)methyl)-1H-1,2,3-triazol-1-yl)-3-nitrobenzoic acid]	86%	3.94 µM	50%	> 25 µM	66%	31%	61%	39%	76%	19%	0.004 µM	> 25 µM	> 25 µM	> 25 µM	> 25 µM	38%	21%	75%	69%	–
